SMILES | melting point [°C]
NS(=O)(=O)N1CCN(Cc2ccccc2)CC1 | 147 to 149
CC(=O)Nc1ccc(C(=O)O)nc1 | 204 to 206
CCCSc1ccc(C(=O)O)cc1 | 141 to 143
NC(=O)c1ncccc1N | 176 to 178
CC(C)(C)OC(=O)NC1CC1 | 62 to 64
O=c1[nH]c(-c2ccncc2)no1 | 259 to 261
O=S(=O)(Cl)c1ccc2c(c1)COC2 | 98 to 100
O=C(O)C1Cc2ccccc2CN1C(=O)c1ccco1 (stereo not given) | 143 to 147
Cc1nnc(S)n1Cc1ccccc1 | 164 to 166
Cc1cc(C(=O)O)c(C)n1Cc1ccccn1 | 151 to 153
Cc1cc(NC(=O)C(C)Cl)on1 (stereo not given) | 78 to 80
c1ccc(CNc2nccs2)cc1 | 127 to 129
CN(CC(=O)O)S(N)(=O)=O | 94 to 96
CN(C)CCn1c(S)nc2ccsc2c1=O | 192 to 194
c1ccc(C2=NCCN2)nc1 | 149 to 151
Sc1nc2ccccc2n1CCc1ccccc1 | 177 to 179
Cn1cc(N2CCC(Br)C2=O)cn1 (stereo not given) | 136 to 138
COC(=O)Cc1c(C(=O)OC)sc(N)c1C(=O)OC | 178 to 180
CC(Cl)C(=O)Nc1sc2c(c1C#N)CCC2 (stereo not given) | 204 to 206
NC(=O)c1cccc(OCCC(=O)O)c1 | 196 to 198
COc1ccc(C(=O)O)cc1-c1ccn(C)n1 | 179 to 181
O=S(=O)(Cl)c1cc(Cl)cc2c1OCC2 | 105 to 107
CC1CCC(NC2CCC(O)CC2)CC1 (stereo not given) | 143 to 145
COc1ccc(-c2ccncc2C=O)cc1 | 82 to 84
COC(=O)C1CCN(c2nccc3sccc23)CC1 | 83 to 85

SMILES | melting point [°C]
COc1cccc(NC(=O)CC#N)c1 | 154 to 156
CCOc1cn(-c2ccccc2)nc1C(=O)O | 142 to 144
COC(=O)c1cc(N)c(OC)c(OC)c1 | 127 to 129
CC(C)(C)OC(=O)NCC1CCCCS1(=O)=O (stereo not given) | 97 to 99
CNC(=O)CC(N)=S | 133 to 135
Cc1[nH]c(C(=O)O)c(C)c1C(=O)OC(C)C | 183 to 185
Nc1ccc(-n2ccnc2)nc1 | 114 to 116
CCN(CC)S(=O)(=O)c1cccc(C(=O)NN)c1 | 133 to 135
O=C(c1c(Cl)cccc1Cl)N1CCNCC1 | 149 to 151
CC(C)NC(C)(C)CO | 42 to 44
O=C(O)C=Cc1cn(-c2ccccc2)nc1-c1ccc(F)cc1 | 229 to 231
Cc1nnc2cc(Cl)ncn12 | 122 to 124
Cc1c(N)cccc1-n1cnnn1 | 124 to 126
COC(=O)c1ccc2c(c1)CCCN2 | 71 to 73
NN1CCN(C(c2ccccc2)c2ccccc2)CC1 | 108 to 110
CC(=O)N(C)Cc1ccc(C(=O)CCl)cc1 | 45 to 47
CCOC(=O)c1cc(N)[nH]n1 | 118 to 120
COc1ccc(NC(C)=O)cc1S(N)(=O)=O | 220 to 222
CC(=O)c1cccc(OCC(=O)N(C)C)c1 | 93 to 95
Oc1ccccc1Oc1ccccn1 | 110 to 112
N#CCc1nc2cc(Cl)ccc2s1 | 155 to 157
COC(=O)c1cccc(-c2ncno2)c1 | 101 to 103
Cc1cc(C)cc(C(=O)CC#N)c1 | 140 to 142
O=C(O)Cc1ccc(NC(=O)c2cscn2)cc1 | 184 to 186
CC(C)n1cnc2cc(C(=O)O)ccc21 | 216 to 218

Reference: a melting point compilation (Tetko et al.)
